Source: the supplement of paper PMC4862054

Tests used:
Settings in all cases: incubation time: 72 h
BT-474 [1] = experiment: normalised response (% of control), CellTox Green; higher = less cell death (100 = DMSO, 0 = benzethonium chloride kill control)
How it was run: (§1)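 Plates were normalised with 0.1 % DMSO as 100 and a positive kill control as 0. Breast cancer cell lines in 20 µl suspension had been seeded into 384-well plates with compound at 5 concentrations in 10-fold steps over a compound-specific 10,000-fold range, incubated 72 h, and read for CellTox Green fluorescence (485/520 nm) followed by CellTiter-Glo luminescence. Each value is the normalised signal at a single concentration.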

BT-549 [2] = experiment: as above
How it was run: as §1

CAL-120 [3] = experiment: as above
How it was run: as §1

CAL-148 [4] = experiment: as above
How it was run: as §1

CAL-51 [5] = experiment: as above
How it was run: as §1

CAL-85-1 [6] = experiment: as above
How it was run: as §1

DU-4475 [7] = experiment: as above
How it was run: as §1

HCC1599 [8] = experiment: as above
How it was run: as §1

HDQ-P1 [9] = experiment: as above
How it was run: as §1

MCF-10A [10] = experiment: as above
How it was run: as §1

MDA-MB-231 [11] = experiment: as above
How it was run: as §1

MDA-MB-436 [12] = experiment: as above
How it was run: as §1

MDA-MB-453 [13] = experiment: as above
How it was run: as §1

MDA-MB-468 [14] = experiment: as above
How it was run: as §1

BT-474 [15] = experiment: normalised response (% of control), CellTiter-Glo; higher = more viable cells (100 = DMSO, 0 = benzethonium chloride kill control)
Method: (§2)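 DSRT, 72 h incubation, CellTox Green / CellTiter-Glo readout. Signal is normalised to DMSO and benzethonium chloride controls. Value is the normalised response at dose 3.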

BT-549 [16] = experiment: as above
Method: as §2

CAL-120 [17] = experiment: as above
Method: as §2

CAL-148 [18] = experiment: as above
Method: as §2

CAL-51 [19] = experiment: as above
Method: as §2

CAL-85-1 [20] = experiment: as above
Method: as §2

DU-4475 [21] = experiment: as above
Method: as §2

HCC1143 [22] = experiment: as above
Method: as §2

HCC1599 [23] = experiment: as above
Method: as §2

HCC1937 [24] = experiment: as above
Method: as §2

HDQ-P1 [25] = experiment: as above
Method: as §2

Hs578T [26] = experiment: as above
Method: as §2

MCF-10A [27] = experiment: as above
Method: as §2

MDA-MB-231 [28] = experiment: as above
Method: as §2

MDA-MB-436 [29] = experiment: as above
Method: as §2

MDA-MB-453 [30] = experiment: as above
Method: as §2

MDA-MB-468 [31] = experiment: as above
Method: as §2

MFM-223 [32] = experiment: as above
Method: as §2

SK-BR-3 [33] = experiment: as above
Method: as §2

HCC1143 [34] = experiment: normalised response (% of control), CellTox Green; higher = less cell death (100 = DMSO, 0 = benzethonium chloride kill control)
How it was run: as §1

HCC1937 [35] = experiment: as above
How it was run: as §1

Hs578T [36] = experiment: as above
How it was run: as §1

MFM-223 [37] = experiment: as above
How it was run: as §1

BT-474 [38] = experiment: normalised response (% of control), CellTiter-Glo; higher = more viable cells (100 = DMSO, 0 = benzethonium chloride kill control); remark: listed apart in the source
How it was run: as §1

BT-549 [39] = experiment: as above; remark: listed apart in the source
How it was run: as §1

CAL-120 [40] = experiment: as above; remark: listed apart in the source
How it was run: as §1

CAL-148 [41] = experiment: as above; remark: listed apart in the source
How it was run: as §1

CAL-51 [42] = experiment: as above; remark: listed apart in the source
How it was run: as §1

CAL-85-1 [43] = experiment: as above; remark: listed apart in the source
How it was run: as §1

DU-4475 [44] = experiment: as above; remark: listed apart in the source
How it was run: as §1

HCC1143 [45] = experiment: as above; remark: listed apart in the source
How it was run: as §1

HCC1599 [46] = experiment: as above; remark: listed apart in the source
How it was run: as §1

HCC1937 [47] = experiment: as above; remark: listed apart in the source
How it was run: as §1

HDQ-P1 [48] = experiment: as above; remark: listed apart in the source
How it was run: as §1

Hs578T [49] = experiment: as above; remark: listed apart in the source
How it was run: as §1

MCF-10A [50] = experiment: as above; remark: listed apart in the source
How it was run: as §1

MDA-MB-231 [51] = experiment: as above; remark: listed apart in the source
How it was run: as §1

MDA-MB-436 [52] = experiment: as above; remark: listed apart in the source
How it was run: as §1

MDA-MB-453 [53] = experiment: as above; remark: listed apart in the source
How it was run: as §1

MDA-MB-468 [54] = experiment: as above; remark: listed apart in the source
How it was run: as §1

MFM-223 [55] = experiment: as above; remark: listed apart in the source
How it was run: as §1

SK-BR-3 [56] = experiment: as above; remark: listed apart in the source
How it was run: as §1

With `Cn1cc(C[C@@H](N)C(=O)O)c2ccccc21` [1-methyl-D-tryptophan] (50 nM) the normalised response (BT-474 [1]) was 99.9%, the normalised response (BT-549 [2]) was 88% and the normalised response (CAL-120 [3]) was 96.8%. The normalised response (CAL-148 [4]) was 68.5%, the normalised response (CAL-51 [5]) was 80.4% and the normalised response (CAL-85-1 [6]) was 98.5%. For the same compound, the normalised response (DU-4475 [7]) was 103%, the normalised response (HCC1599 [8]) was 94.2% and the normalised response (HDQ-P1 [9]) was 105%. The normalised response (MCF-10A [10]) was 102%, the normalised response (MDA-MB-231 [11]) was 83% and the normalised response (MDA-MB-436 [12]) was 73.2%. The normalised response (MDA-MB-453 [13]) was 105%, the normalised response (MDA-MB-468 [14]) was 99.9% and the normalised response (BT-474 [15]) was 103%. For the same compound, the normalised response (BT-549 [16]) was 107%, the normalised response (CAL-120 [17]) was 104% and the normalised response (CAL-148 [18]) was 90.1%. For the same compound, the normalised response (CAL-51 [19]) was 67.8%, the normalised response (CAL-85-1 [20]) was 102% and the normalised response (DU-4475 [21]) was 100%. The normalised response (HCC1143 [22]) was 99%, the normalised response (HCC1599 [23]) was 92.6% and the normalised response (HCC1937 [24]) was 96.2%. The normalised response (HDQ-P1 [25]) was 102%, the normalised response (Hs578T [26]) was 95.4% and the normalised response (MCF-10A [27]) was 102%. It also gave a normalised response (MDA-MB-231 [28]) of 98.5%, a normalised response (MDA-MB-436 [29]) of 102% and a normalised response (MDA-MB-453 [30]) of 96%. It also gave a normalised response (MDA-MB-468 [31]) of 92.6%, a normalised response (MFM-223 [32]) of 93.4% and a normalised response (SK-BR-3 [33]) of 90.8%.
For `CC(C)n1nc(-c2ccc3oc(N)nc3c2)c2c(N)ncnc21` [INK128] (100 nM), the normalised response (BT-474 [1]) was 96.5%, the normalised response (BT-549 [2]) was 115% and the normalised response (CAL-120 [3]) was 97.1%. The normalised response (CAL-148 [4]) was 58.8%, the normalised response (CAL-51 [5]) was 87.6% and the normalised response (CAL-85-1 [6]) was 101%. It also gave a normalised response (DU-4475 [7]) of 94%, a normalised response (HCC1143 [34]) of 8.7% and a normalised response (HCC1599 [8]) of 95.5%. For the same compound, the normalised response (HCC1937 [35]) was 96.1%, the normalised response (HDQ-P1 [9]) was 108% and the normalised response (Hs578T [36]) was 65.8%. The normalised response (MCF-10A [10]) was 95.8%, the normalised response (MDA-MB-231 [11]) was 108% and the normalised response (MDA-MB-436 [12]) was 94.4%. The normalised response (MDA-MB-453 [13]) was 26%, the normalised response (MDA-MB-468 [14]) was 137% and the normalised response (MFM-223 [37]) was 93.9%. For the same compound, the normalised response (BT-474 [38]) was 50.4%, the normalised response (BT-549 [39]) was 30.7% and the normalised response (CAL-120 [40]) was 30.6%. For the same compound, the normalised response (CAL-148 [41]) was 32.7%, the normalised response (CAL-51 [42]) was 29.3% and the normalised response (CAL-85-1 [43]) was 35.4%. It also gave a normalised response (DU-4475 [44]) of 66%, a normalised response (HCC1143 [45]) of 39.9% and a normalised response (HCC1599 [46]) of 68%. For the same compound, the normalised response (HCC1937 [47]) was 59.7%, the normalised response (HDQ-P1 [48]) was 42.6% and the normalised response (Hs578T [49]) was 35.1%. The normalised response (MCF-10A [50]) was 43.5%, the normalised response (MDA-MB-231 [51]) was 50.3% and the normalised response (MDA-MB-436 [52]) was 48.6%. For the same compound, the normalised response (MDA-MB-453 [53]) was 37.2%, the normalised response (MDA-MB-468 [54]) was 39.5% and the normalised response (MFM-223 [55]) was 32.2%. It also gave a normalised response (SK-BR-3 [56]) of 22.6%.
